Experimental findings from patent publication US20040023295A1, “Methods and systems for analyzing complex biological systems” (priority 2001, published 2004) are described below.

Each structure is given as a SMILES string.

Test [1] deals with Arabidopsis thaliana plants. The test can be described thus: Phenotypic analysis of herbicide-treated Arabidopsis plants (SOA1). The conditions noted are these: for Dev. leafWidth: numeric values standardized to the average response for the mock treated tissues; for Dev. leafCurling / Dev. leafTwisting / Dev. matureLeafAnthocyanins / Dev. matureLeafChlorosis / Dev. matureLeafNecrosis / Dev. newLeafAnthocyanins / Dev. newLeafChlorosis / Dev. newLeafNecrosis / Dev. pointedLeaves: standardized to mock treated; for Symptom Class: three-week-old Arabidopsis sprayed with herbicide, phenotype classes of FIG. 12; for Dev. tMic: time for full range of symptoms at MIC, coded score; for characteristic symptoms (morphological phenotype): herbicide-treated Arabidopsis. The format is in vivo.

Test [2] relates to Saccharomyces cerevisiae wild type strain BY4743. The test can be described thus: Yeast azole drug experiment AF1: metabolite analysis (GC-MS, LC-MS). The format is cell-based.

Turning to `O=C(O)COc1ccc(Cl)cc1Cl` [2,4-D], in test [1], the “Dev. leafWidth” value is given as −1, the “Dev. leafCurling” value is 1, the “Dev. leafTwisting” value came to 2 and the “Dev. matureLeafAnthocyanins” value is reported as 1. In test [1], the “Dev. matureLeafChlorosis” value is 2, the “Dev. matureLeafNecrosis” value is on record as 0, the “Dev. newLeafAnthocyanins” value was found to be 0 and the “Dev. newLeafChlorosis” value stood at 1. Moreover, in test [1], the “Dev. newLeafNecrosis” value was determined as 0, the “Dev. pointedLeaves” value is given as 0, the “Symptom Class” value was 5 and the “Dev. tMic” value turned out to be 2.
Turning to `O=C(O)c1cc(Oc2ccc(C(F)(F)F)cc2Cl)ccc1[N+](=O)[O-]` [Acifluorfen], the “characteristic symptoms (morphological phenotype)” value in test [1] is “Necrotic leaf flecks”.
`CCNc1nc(Cl)nc(NC(C)C)n1` [Atrazine]: the “characteristic symptoms (morphological phenotype)” value in test [1] is “rapid and widespread leaf necrosis”.
Same read-out and setting: with `CC(C)N1C(=O)c2ccccc2NS1(=O)=O` [Bentazon] the entry was “rapid and widespread leaf necrosis”; with `COC(=O)c1cc(Oc2ccc(Cl)cc2Cl)ccc1[N+](=O)[O-]` [Bifenox], “Necrotic leaf flecks”.
Regarding `c1cc[n+]2c(c1)-c1cccc[n+]1CC2` [Diquat], in test [1], the “characteristic symptoms (morphological phenotype)” value was “rapid and widespread leaf necrosis”; the “Dev. leafWidth” value was −2; the “Dev. leafCurling” value was 2; the “Dev. leafTwisting” value came to 0. Further, in test [1], the “Dev. matureLeafAnthocyanins” value is given as 0, the “Dev. matureLeafChlorosis” value is recorded as 1, the “Dev. matureLeafNecrosis” value is on record as 4 and the “Dev. newLeafAnthocyanins” value was 0. For the same compound, in test [1], the “Dev. newLeafChlorosis” value was determined as 1, the “Dev. newLeafNecrosis” value came out at 4, the “Dev. pointedLeaves” value is recorded as 1 and the “Symptom Class” value was 7. The “Dev. tMic” value in test [1] is given as 2.
Consider `CN(C)C(=O)Nc1ccc(Cl)c(Cl)c1` [Diuron], for which, in test [1], the “characteristic symptoms (morphological phenotype)” value is “rapid and widespread leaf necrosis”; the “Dev. leafWidth” value is reported as −2; the “Dev. leafCurling” value is recorded as 1; the “Dev. leafTwisting” value stood at 0. In test [1], the “Dev. matureLeafAnthocyanins” value was 0, the “Dev. matureLeafChlorosis” value amounted to 2, the “Dev. matureLeafNecrosis” value stood at 4 and the “Dev. newLeafAnthocyanins” value was 0. In test [1], the “Dev. newLeafChlorosis” value is listed as 2, the “Dev. newLeafNecrosis” value is 4, the “Dev. pointedLeaves” value stood at 1 and the “Symptom Class” value worked out at 7. The “Dev. tMic” value in test [1] stood at 1.
Turning to `OC(Cn1cncn1)(Cn1cncn1)c1ccc(F)cc1F` [Fluconazole], in test [2] (GC), the “Fold Change campesterol” value amounted to 0, the “Fold Change desmosterol” value turned out to be 0 and the “Fold Change octadecanoic acid” value amounted to 0.082. In test [2] (nLC), the “Fold Change 4-methylcatechol” value is 0, the “Fold Change 5hydroxyL-tryptophan” value is 0, the “Fold Change 6-benzylaminopurine” value amounted to 0 and the “Fold Change NacetylD-glucosamine” value is 0. For the same compound, in test [2] (nLC), the “Fold Change NacetylL-ornithine” value worked out at 0, the “Fold Change abscisic acid” value turned out to be 0, the “Fold Change adenine” value was 0 and the “Fold Change adenosine” value came to 0. Besides, in test [2] (nLC), the “Fold Change anthranilic acid” value was determined as 0, the “Fold Change argininosuccinate” value amounted to 0, the “Fold Change benzoic acid” value is recorded as 0 and the “Fold Change catechol” value was 0. For the same compound, in test [2] (nLC), the “Fold Change cinnamic acid” value is listed as 0, the “Fold Change citricanoic/itaconi” value is reported as 0, the “Fold Change citrulline” value was 0 and the “Fold Change coumaric acid” value amounted to 0. For the same compound, in test [2] (nLC), the “Fold Change cytosine” value is given as 0, the “Fold Change diaminopimelic acid” value is given as 0, the “Fold Change dihydrofolic acid” value amounted to 0 and the “Fold Change estrone” value was determined as 0. For the same compound, in test [2] (nLC), the “Fold Change farnesol” value is 0, the “Fold Change folic acid” value was determined as 0, the “Fold Change gibberellic” value is recorded as 0 and the “Fold Change guanine” value turned out to be 0. For the same compound, in test [2] (nLC), the “Fold Change histidine” value came to 0, the “Fold Change homogentisic/uric” value was found to be 0, the “Fold Change hydrocortisone” value stood at 0 and the “Fold Change indole3-pyruvic acid” value was determined as 0. In test [2] (nLC), the “Fold Change jasmonic acid” value was found to be 0, the “Fold Change kinetin” value was determined as 0, the “Fold Change luteolin” value came out at 0 and the “Fold Change malonic acid” value amounted to 0. Also, in test [2] (nLC), the “Fold Change methionine” value stood at 0, the “Fold Change orotic acid” value was 0, the “Fold Change phenylpyruvic acid” value came out at 0 and the “Fold Change phosphoenolpyruvate” value came out at 0. In addition, in test [2] (nLC), the “Fold Change pinitol” value is 0, the “Fold Change porphobilinogen” value was found to be 0, the “Fold Change retinoic acid” value amounted to 0 and the “Fold Change salicylic/HObenzoic” value turned out to be 0. Also, in test [2] (nLC), the “Fold Change shikimic acid” value is listed as 0, the “Fold Change sinapinic acid” value was found to be 0, the “Fold Change thymine” value was 0 and the “Fold Change urocanic acid” value came to 0. Further, in test [2] (nLC), the “Fold Change xanthosine-DiH2O” value stood at 0 and the “Fold Change zeatin” value is 0. In addition, in test [2] (pLC), the “Fold Change 4-aminobenzoic acid” value is recorded as 0, the “Fold Change 4-methylcatechol” value is listed as 0, the “Fold Change 5hydroxyL-tryptophan” value is 0 and the “Fold Change 6benzylaminopurine” value was 0. In addition, in test [2] (pLC), the “Fold Change NacetylD-glucosamine” value was 0, the “Fold Change NacetylL-glutamate” value was 0, the “Fold Change abscisic acid” value is 0 and the “Fold Change adenosine” value stood at 0. In test [2] (pLC), the “Fold Change allantoic acid” value was determined as 0, the “Fold Change anthranilic acid” value was 0, the “Fold Change argininosuccinate” value is 0 and the “Fold Change biotin” value stood at 0. Moreover, in test [2] (pLC), the “Fold Change caffeine” value stood at 0, the “Fold Change citric acid TME” value was determined as 0, the “Fold Change cytidine” value is on record as 0 and the “Fold Change cytosine” value is 0. Also, in test [2] (pLC), the “Fold Change diaminopimelic acid” value turned out to be 0, the “Fold Change dihydrofolic acid” value came out at 0, the “Fold Change dipicolinic acid” value is recorded as 0 and the “Fold Change folic acid” value is recorded as 0. In test [2] (pLC), the “Fold Change glucosamine” value is given as 0, the “Fold Change glucosamine6PO4” value was 0, the “Fold Change histidine” value was found to be 0 and the “Fold Change hydrocortisone” value amounted to 0. In test [2] (pLC), the “Fold Change itaconic acid dimes” value came out at 0, the “Fold Change kinetin” value was 0, the “Fold Change luteolin” value stood at 0 and the “Fold Change niacinamide” value worked out at 0. In addition, in test [2] (pLC), the “Fold Change nopaline” value came to 0, the “Fold Change phosphoenolpyruvate” value was 0, the “Fold Change progesterone” value stood at 0 and the “Fold Change riboflavin” value is given as 0. In addition, in test [2] (pLC), the “Fold Change sugar-phosphate” value amounted to 0, the “Fold Change thiamine” value is given as 0, the “Fold Change thymine” value was found to be 0 and the “Fold Change tryptophan” value amounted to 0. Also, in test [2] (pLC), the “Fold Change uric acid” value was determined as 0, the “Fold Change urocanic acid” value came out at 0, the “Fold Change xanthosine (diH2O)” value amounted to 0 and the “Fold Change zeatin” value was determined as 0.
Take `CCc1cnc(C2=NC(C)(C(C)C)C(=O)N2)c(C(=O)O)c1` (stereo not shown) [Imazethapyr]: in test [1], the “characteristic symptoms (morphological phenotype)” value is reported as “anthocyanin accumulation in the older leaves accompanied by chlorosis of the newly emerging leaves”.
Turning to `CC[C@@H]([C@H](C)O)n1ncn(-c2ccc(N3CCN(c4ccc(OC[C@@H]5CO[C@@](Cn6cncn6)(c6ccc(F)cc6F)C5)cc4)CC3)cc2)c1=O` [Posaconazole], the “Fold Change: 4-aminobenzoic acid” value in test [2] (platform nLC) was 0.
